Source: US10308644B2, “Heterocyclic compounds as immunomodulators” (Incyte Corporation, priority 2016, dated 2019)

These compounds were tested against PD-1/PD-L1 (Homo sapiens (Human), UniProt Q9NZQ7) (assay: PD-1/PD-L1 Homogeneous Time-Resolved Fluorescence (HTRF) Binding Assay). Conditions: recombinant human PD-1 (3 nM) and PD-L1 (10 nM), 25° C., PBS pH 7.4.
Procedure, shortened: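 Fc-tagged human PD-1 (25-167, 3 nM) and His-tagged PD-L1 (19-238, 10 nM) preincubated with inhibitor 40 min in PBS pH 7.4, 0.05% Tween-20, 0.1% BSA, 1% DMSO, 25 °C. Binding detected by HTRF (Eu anti-IgG/APC anti-His, 665/620 nm) after 60 min; IC50 from percent control activity.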

Sequence of PD-1/PD-L1 (Q9NZQ7 19-238): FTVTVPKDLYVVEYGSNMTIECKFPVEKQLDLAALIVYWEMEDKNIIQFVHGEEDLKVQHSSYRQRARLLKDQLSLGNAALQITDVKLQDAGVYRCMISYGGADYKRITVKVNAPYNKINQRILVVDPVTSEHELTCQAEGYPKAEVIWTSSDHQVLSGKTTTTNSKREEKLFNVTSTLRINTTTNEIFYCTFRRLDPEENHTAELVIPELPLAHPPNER

Row | Compound | IC50 [nM]
1 | CCN(C)CC(=O)N1Cc2nc(-c3cccc(-c4cccc(-c5nc6cc(CN7CCC(C(=O)O)CC7)cc(C#N)c6o5)c4C)c3C)oc2C1 [Example 244, 1-((7-cyano-2-(3′-(5-(N-ethyl-N-methylglycyl)-5,6-dihydro-4H-pyrrolo[3,4-d]oxazol-2-yl)-2,2′-dimethyl-[1,1′-biphenyl]-3-yl)benzo[d]oxazol-5-yl)methyl)piperidine-4-carboxylic acid] | ≤ 10
2 | Cc1c(-c2nc3cc(CN4CCC(C(=O)O)CC4)cc(C#N)c3o2)cccc1-c1cccc(NC(=O)c2nc3c(n2C)CC(C)N(C)C3)c1Cl (centres unmarked) [Example 162, 1-((2-(2′-chloro-2-methyl-3′-(1,5,6-trimethyl-4,5,6,7-tetrahydro-1H-imidazo[4,5-c]pyridine-2-carboxamido)biphenyl-3-yl)-7-cyanobenzo[d]oxazol-5-yl)methyl)piperidine-4-carboxylic acid] | ≤ 10
3 | Cc1c(Nc2nccc3cc(CN[C@@H](C)CO)cnc23)cccc1-c1cccc(-c2nc3cc(CN4CC[C@@](C)(C(=O)O)C4)cc(C#N)c3o2)c1C [Example 195, (R)-1-((7-cyano-2-(3′-(3-(((S)-1-hydroxypropan-2-ylamino)methyl)-1,7-naphthyridin-8-ylamino)-2,2′-dimethylbiphenyl-3-yl)benzo[d]oxazol-5-yl)methyl)-3-methylpyrrolidine-3-carboxylic acid] | ≤ 10
4 | Cc1c(NC(=O)c2nc3c(n2C)CCN(C)C3)cccc1-c1cccc(-c2nc3cc(CN4CC[C@@H](C(=O)O)C4)cc(C#N)c3o2)c1C [Example 80, (R)-1-((7-cyano-2-(3′-(1,5-dimethyl-4,5,6,7-tetrahydro-1H-imidazo[4,5-c]pyridine-2-carboxamido)-2,2′-dimethylbiphenyl-3-yl)benzo[d]oxazol-5-yl)methyl)pyrrolidine-3-carboxylic acid] | ≤ 10
5 | Cc1c(-c2nc3cc(CN4CC[C@@](C)(C(=O)O)C4)cc(C#N)c3o2)cccc1-c1cccc(-c2nc3c(s2)CN(C(=O)CN(C)[C@@H](C)CO)C3)c1C [Example 226, (R)-1-((7-cyano-2-(3′-(5-(2-(((S)-1-hydroxypropan-2-yl)(methyl)amino)acetyl)-5,6-dihydro-4H-pyrrolo[3,4-d]thiazol-2-yl)-2,2′-dimethylbiphenyl-3-yl)benzo[d]oxazol-5-yl)methyl)-3-methylpyrrolidine-3-carboxylic acid] | ≤ 10

Now from value to compound:

Row | IC50 [nM] | Compound
6 | ≤ 10 | Cc1c(-c2nc3cc(CN4CC[C@@](C)(C(=O)O)C4)cc(C#N)c3o2)cccc1-c1cccc(NC(=O)c2nc3c(n2C)CCN(C[C@@H](C)O)C3)c1Cl [Example 157, (R)-1-((2-(2′-chloro-3′-(5-((R)-2-hydroxypropyl)-1-methyl-4,5,6,7-tetrahydro-1H-imidazo[4,5-c]pyridine-2-carboxamido)-2-methylbiphenyl-3-yl)-7-cyanobenzo[d]oxazol-5-yl)methyl)-3-methylpyrrolidine-3-carboxylic acid]
7 | ≤ 10 | Cc1c(-c2nc3cc(CN4CC[C@@](C)(C(=O)O)C4)cc(C#N)c3o2)cccc1-c1cccc(NC(=O)c2nc3c(n2C)CC(C)NC3)c1Cl (stereo partly drawn) [Example 163, (3R)-1-((2-(2′-chloro-3′-(1,6-dimethyl-4,5,6,7-tetrahydro-1H-imidazo[4,5-c]pyridine-2-carboxamido)-2-methylbiphenyl-3-yl)-7-cyanobenzo[d]oxazol-5-yl)methyl)-3-methylpyrrolidine-3-carboxylic acid]
8 | ≤ 10 | Cc1c(Nc2nccc3cc(CN4CC[C@@H](O)C4)cnc23)cccc1-c1cccc(-c2nc3cc(CN[C@H]4CC[C@H](C(=O)O)C4)cc(C#N)c3o2)c1C [Example 182, (1S,3S)-3-((7-cyano-2-(3′-(3-(((R)-3-hydroxypyrrolidin-1-yl)methyl)-1,7-naphthyridin-8-ylamino)-2,2′-dimethylbiphenyl-3-yl)benzo [d]oxazol-5-yl)methylamino)cyclopentane carboxylic acid]
